Assay results taken from paper PMC11167782, “Tunlametinib (HL-085) plus vemurafenib in patients with advanced BRAF V600-mutant solid tumors: an open-label, single-arm, multicenter, phase I study” (Experimental Hematology & Oncology, 2024).

Columns and labels:
BRAF V600-mutant NSCLC = settings: monotherapy; cited from earlier work
BRAF V600-mutant PTC = tested on: BRAF V600-mutant PTC; design: method as in PMID 35658604; settings: monotherapy; cited from earlier work
patients = tested on: patients; design: method as in PMID 21639808; settings: phase III trial; cited from earlier work
[1] = Phase I study: plasma pharmacokinetics (UPLC-MS/MS); settings: for AUC(0-t) / AUC / Cmax / Tmax: human, plasma; for AUC(0-t): AUClast; for AUC(0-t) / AUC / Cmax: mean (SD); for AUC: AUCtau
Procedure: PK assessments were performed using a validated ultra-performance liquid chromatography-tandem mass spectrometry method.
All samples analyzed within established storage stability periods.

CYP3A4 = tested on: CYP3A4; design: method as in earlier work; settings: cited from earlier work
[2] = Multiple dose, Tunlametinib 9mg BID + vemurafenib 720mg BID
[3] = Multiple dose, Tunlametinib 9mg BID + vemurafenib 960mg BID
[4] = Multiple dose, Tunlametinib 12mg BID + vemurafenib 720mg BID
[5] = Multiple dose, Tunlametinib 12mg BID + vemurafenib 960mg BID
[6] = Multiple dose, Vemurafenib 720mg BID Total
[7] = Multiple dose, Vemurafenib 960mg Total
[8] = Single dose, Tunlametinib 9mg BID + vemurafenib 720mg BID
[9] = Single dose, Tunlametinib 9mg BID + vemurafenib 960mg BID
[10] = Single dose, Tunlametinib 12mg BID + vemurafenib 720mg BID
[11] = Single dose, Tunlametinib 12mg BID + vemurafenib 960mg BID
[12] = 720 mg, Multiple dose, Vemurafenib 720mg BID Total
[13] = 720 mg, Single dose, Vemurafenib 720mg BID Total
[14] = 960 mg, Multiple dose, Vemurafenib 960mg Total
[15] = 960 mg, Single dose, Vemurafenib 960mg Total
[16] = vemurafenib, multiple administrations, across doses

For `CC(C)(C)c1nc(-c2cccc(NS(=O)(=O)c3c(F)cccc3F)c2F)c(-c2ccnc(N)n2)s1` [dabrafenib], the “Median PFS” value (BRAF V600-mutant NSCLC) is given as 5.5 months, the ORR (BRAF V600-mutant NSCLC) is given as 33% and the ORR (BRAF V600-mutant PTC) is given as 35%.

For `CCCS(=O)(=O)Nc1ccc(F)c(C(=O)c2c[nH]c3ncc(-c4ccc(Cl)cc4)cc23)c1F` [Vemurafenib, vemurafenib], the Incidence of photosensitivity (patients) is given as 30%, the “Cavg, mean (SD)” value [1, 2] is given as 29792.81 (1092.82) ng/mL and the “Fluctuation%, mean (SD)” value [1, 2] is given as 37.17 (4.45) %. The “RAUClast (accumulation ratio), mean (SD)” value [1, 2] was 11.76 (5.15), the “RCmax (accumulation ratio), mean (SD)” value [1, 2] was 8.92 (3.76) and the “Cavg, mean (SD)” value [1, 3] was 47113.74 (NC) ng/mL. For the same compound, the “Fluctuation%, mean (SD)” value [1, 3] was 19.95 (NC) %, the “RAUClast (accumulation ratio), mean (SD)” value [1, 3] was 36.26 (58.5) and the “RCmax (accumulation ratio), mean (SD)” value [1, 3] was 16.01 (16.13). For the same compound, the “Cavg, mean (SD)” value [1, 4] was 34081.99 (20393.59) ng/mL, the “Fluctuation%, mean (SD)” value [1, 4] was 36.48 (16.11) % and the “RAUClast (accumulation ratio), mean (SD)” value [1, 4] was 10.61 (4.88). For the same compound, the “RAUCtau (accumulation ratio), mean (SD)” value [1, 4] was 13.29 (4.87), the “RCmax (accumulation ratio), mean (SD)” value [1, 4] was 8.54 (4.03) and the “Cavg, mean (SD)” value [1, 5] was 28324.83 (NC) ng/mL. The “Fluctuation%, mean (SD)” value [1, 5] was 25.42 (NC) %, the “RAUClast (accumulation ratio), mean (SD)” value [1, 5] was 10.75 (2.55) and the “RCmax (accumulation ratio), mean (SD)” value [1, 5] was 8.23 (1.79). For the same compound, the “Cavg, mean (SD)” value [1, 6] was 32652.26 (15958.81) ng/mL, the “Fluctuation%, mean (SD)” value [1, 6] was 36.71 (12.64) % and the “RAUClast (accumulation ratio), mean (SD)” value [1, 6] was 11.10 (4.84). The “RAUCtau (accumulation ratio), mean (SD)” value [1, 6] was 13.29 (4.87), the “RCmax (accumulation ratio), mean (SD)” value [1, 6] was 8.70 (3.77) and the “Cavg, mean (SD)” value [1, 7] was 45227.97 (17802.57) ng/mL. For the same compound, the “Fluctuation%, mean (SD)” value [1, 7] was 29.65 (16.23) %, the “RAUClast (accumulation ratio), mean (SD)” value [1, 7] was 23.92 (39.19) and the “RAUCtau (accumulation ratio), mean (SD)” value [1, 7] was 14.07 (NC). The “RCmax (accumulation ratio), mean (SD)” value [1, 7] was 13.22 (11.54), the “AUC_%Extrap, mean (SD)” value [1, 8] was 56.66 (6.57) % and the “AUC_%Extrap, mean (SD)” value [1, 9] was 57.98 (NC) %. For the same compound, the “AUC_%Extrap, mean (SD)” value [1, 10] was 61.30 (6.78) %, the “AUC_%Extrap, mean (SD)” value [1, 11] was 64.58 (NC) % and the “AUC_%Extrap, mean (SD)” value ([1]; Single dose, Vemurafenib 720mg BID Total) was 60.37 (6.66) %. For the same compound, the “AUC_%Extrap, mean (SD)” value ([1]; Single dose, Vemurafenib 960mg Total) was 61.29 (11.94) %, the AUC(0-t) [1, 12] was 372 µg·h/mL and the AUC(0-t) [1, 13] was 39.3 µg·h/mL. It also gave an AUC [1, 12] of 392 µg·h/mL, an AUC [1, 13] of 41 µg·h/mL and a Cmax [1, 12] of 36600 ng/mL. For the same compound, the Cmax [1, 13] was 4890 ng/mL, the Tmax ([1]; 720 mg, Tmax, median (range), Multiple dose, Vemurafenib 720mg BID Total) was 2.07 h and the Tmax ([1]; 720 mg, Tmax, median (range), Single dose, Vemurafenib 720mg BID Total) was 4 h. The AUC(0-t) [1, 14] was 503 µg·h/mL, the AUC(0-t) [1, 15] was 50.5 µg·h/mL and the AUC [1, 14] was 543 µg·h/mL. For the same compound, the AUC [1, 15] was 61.2 µg·h/mL, the Cmax [1, 14] was 48300 ng/mL and the Cmax [1, 15] was 6220 ng/mL. The Tmax ([1]; 960 mg, Tmax, median (range), Multiple dose, Vemurafenib 960mg Total) was 3.99 h, the Tmax ([1]; 960 mg, Tmax, median (range), Single dose, Vemurafenib 960mg Total) was 4.01 h and the AUC(0-t) [1, 2] was 376 µg·h/mL. For the same compound, the AUC(0-t) [1, 3] was 530 µg·h/mL, the AUC(0-t) [1, 4] was 379 µg·h/mL and the AUC(0-t) [1, 5] was 456 µg·h/mL. For the same compound, the AUC(0-t) [1, 8] was 45.8 µg·h/mL, the AUC(0-t) [1, 9] was 65.3 µg·h/mL and the AUC(0-t) [1, 10] was 37.2 µg·h/mL. The AUC(0-t) [1, 11] was 47.1 µg·h/mL, the AUC [1, 2] was 358 µg·h/mL and the AUC [1, 3] was 565 µg·h/mL. The AUC [1, 4] was 409 µg·h/mL, the AUC [1, 5] was 340 µg·h/mL and the AUC [1, 8] was 55.2 µg·h/mL. For the same compound, the AUC [1, 9] was 118 µg·h/mL, the AUC [1, 10] was 38.2 µg·h/mL and the AUC [1, 11] was 37.7 µg·h/mL. It also gave a Cmax [1, 2] of 37400 ng/mL, a Cmax [1, 3] of 49200 ng/mL and a Cmax [1, 4] of 36800 ng/mL. The Cmax [1, 5] was 42800 ng/mL, the Cmax [1, 8] was 5710 ng/mL and the Cmax [1, 9] was 7360 ng/mL. It also gave a Cmax [1, 10] of 4610 ng/mL, a Cmax [1, 11] of 5710 ng/mL and a Tmax ([1]; Tmax, median (range), Multiple dose, Tunlametinib 9mg BID + vemurafenib 720mg BID) of 3.92 h. It also gave a Tmax ([1]; Tmax, median (range), Multiple dose, Tunlametinib 9mg BID + vemurafenib 960mg BID) of 4.07 h, a Tmax ([1]; Tmax, median (range), Multiple dose, Tunlametinib 12mg BID + vemurafenib 720mg BID) of 1.93 h and a Tmax ([1]; Tmax, median (range), Multiple dose, Tunlametinib 12mg BID + vemurafenib 960mg BID) of 3.95 h. It also gave a Tmax ([1]; Tmax, median (range), Single dose, Tunlametinib 9mg BID + vemurafenib 720mg BID) of 4 h, a Tmax ([1]; Tmax, median (range), Single dose, Tunlametinib 9mg BID + vemurafenib 960mg BID) of 3.96 h and a Tmax ([1]; Tmax, median (range), Single dose, Tunlametinib 12mg BID + vemurafenib 720mg BID) of 4 h. For the same compound, the Tmax ([1]; Tmax, median (range), Single dose, Tunlametinib 12mg BID + vemurafenib 960mg BID) was 4.07 h, the Tmax ([1]; oral, Median Tmax, vemurafenib, single-dose) was roughly 4 h and the “Average accumulation ratio based on AUClast” value [1, 16] was 10.6 to 36.3. For the same compound, the “Average accumulation ratio based on AUCtau” value [1, 16] was 13.3 to 14.1, the “Average accumulation ratio based on Cmax” value [1, 16] was 8.2 to 16.0 and the Main metabolizing enzyme (CYP3A4) was “metabolized mainly by CYP3A4”.
